From paper PMC8414802, “Hair Cell Generation in Cochlear Culture Models Mediated by Novel γ-Secretase Inhibitors” (Frontiers in Cell and Developmental Biology, 2021)

Tested on: Myo7a+ hair cells in rat cochlear organoids
Experiment: Rat cochlear organoids, hair cell differentiation
Format: cell-based
Details: for Total hair cells per organoid prior to normalization: end of differentiation, GSI 5 μM
Experimental: On day 0, the cochlear sensory epithelium was dissected and the OC was separated from the modiolus and stria vascularis, as described above, from either Wistar rat pups (P2), Lgr5-GFP mice (P0–P2) or Atoh1-GFP mice (P0–P2). To separate the sensory epithelial layer from underlying mesenchyme and neurons, the OC was placed in a 100 μl drop of Matrisperse Cell Recovery Solution (Corning) for 1 h at RT, then delaminated with the aid of forceps. Gentle enzymatic dissociation of hair cells and supporting cells followed with 100 μl drop of TrypLE (Gibco), 20 min at 37°C, then mechanical trituration in DMEM/F12. The cell suspension was centrifuged for 5 min at 500 g at 4°C and resuspended in DMEM/F12 medium supplemented with B27 and N2 (Invitrogen), EGF (50 ng/ml), bFGF (50 ng/ml), IGF (25 ng/ml), CHIR99021 (GSK-3β inhibitor, 3 μM, Merck), valproic acid (HDAC inhibitor, 1 mM, Sigma), 2-phospho-L-ascorbic acid (280 μM, Stemcell Technologies) and 0.01% ampicillin (Sigma). Cells were plated at 2,000 cells per well on 96 wells plate (Corning Costar; ultra-low attachment, round-bottom) to allow aggregation at 37°C. On day 1, Matrigel (GF-depleted, Corning; 2% stock) was added to a final concentration of 0.18 mg/ml. On day 3, cells were transferred to 24 wells plate (ultra-low attachment; Corning Costar), pooling the organoid aggregates from 4 to 5 wells (96 well-plate) to one 24-well, culturing at 37°C and exchanging half medium and Matrigel every other day, On day 10, organoids were differentiated by replacing medium with DMEM/F12 supplemented with B27, N2, CHIR99021 (3 μM), and Notch inhibitors CPD3 (5 μM) or LY411575 (5 μM), and culture was continued as above for another 10 days.
For staining and imaging, organoids were allowed to adhere ON onto transwell-permeable support membranes (Corning) in 12-well plates coated with 100% Matrigel. […] Compiled Z-projections were processed (FIJI, ver2.0) and hair cells quantified on individual planes with manual cell counter plugin, by evaluation of cytosolic expression and nuclear exclusion of Myo7a. […]

Row | SMILES | Hair cell numbers during differentiation (diff D20 vs exp D10, p < 0.05) | Total hair cells per organoid prior to normalization
1 | COc1ccc2c(c1)N1CCC(C)(C)C1=CC(=O)[C@H]2NC(=O)[C@H](C)NC(=O)CCC(F)(F)F [CPD3] | significantly increased | 22.8 ± 18.0
2 | C[C@H](NC(=O)[C@@H](O)c1cc(F)cc(F)c1)C(=O)N[C@@H]1C(=O)N(C)c2ccccc2-c2ccccc21 [LY411575] | – | 17.17 ± 20.9
